Laboratory results: patent publication US8097440B1, “Engineered microorganisms capable of producing target compounds under anaerobic conditions” (Gevo, Inc., priority 2008, dated 2012)
Positions count from the first letter of the chain named.

Key:
[1] = molecular target: T1, Escherichia coli KARI (ketol-acid reductoisomerase) Ec_IlvC^his6, wild type IlvC (SEQ ID NO: 13) with his6-tag, SEQ ID NO: 15 (Escherichia coli, UniProt P05793); assay: KARI cuvette assay, purified Ec_IlvC^his6 (parent / wild type); assay type: biochemical, E. coli; conditions: relative to Ec_IlvC^his6 with NADPH
T1 sequence (P05793 with tags, fused parts or gaps): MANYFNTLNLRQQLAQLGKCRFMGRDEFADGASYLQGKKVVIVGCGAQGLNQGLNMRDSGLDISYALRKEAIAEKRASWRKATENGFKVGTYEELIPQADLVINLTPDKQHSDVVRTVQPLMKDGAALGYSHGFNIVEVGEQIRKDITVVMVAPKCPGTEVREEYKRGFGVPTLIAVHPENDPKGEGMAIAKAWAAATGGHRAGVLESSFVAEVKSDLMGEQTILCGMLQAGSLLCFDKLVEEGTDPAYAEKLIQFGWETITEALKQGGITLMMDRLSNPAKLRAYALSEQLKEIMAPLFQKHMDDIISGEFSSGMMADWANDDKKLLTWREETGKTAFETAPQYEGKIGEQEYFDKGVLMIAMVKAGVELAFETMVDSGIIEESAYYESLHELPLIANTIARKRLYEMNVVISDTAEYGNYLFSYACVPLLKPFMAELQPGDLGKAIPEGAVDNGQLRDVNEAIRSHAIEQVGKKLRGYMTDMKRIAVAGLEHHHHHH
Description: KARI cuvette assay: KARI activity was assayed kinetically by monitoring the decrease in NAD(P)H concentration by measuring the absorbance at 340 nm. A reaction buffer was prepared containing 250 mM potassium phosphate pH 7, 1 mM DTT and 10 mM MgCl2. Cell pellets were resuspended (0.25 g wet weight/mL buffer) in 250 mM potassium phosphate (KPi) buffer containing 1 mM DTT and 10 mM MgCl2. The resuspended cells were lysed by sonication for 1 min with a 50% duty cycle and pelleted at 11000×g and 4° C. for 15 min. A reaction mixture consisting of 910 μl reaction buffer, 50 μl acetolactate, and 20 μl lysate was prepared in a cuvette. […]
Only 20% of the enzymes of the recombination library were active on NADH. After screening 1,000 clones using the NADH depletion assay at 340 nm, 26 KARI variants were selected for a rescreen by the high-throughput assay described in Example 14 and eight thereof were expressed in 25 ml LBamp medium in shake flasks according to the protocol for cell growth and protein expression in shake flasks as described in Example 14, purified according to the protocol for purification of KARI enzymes as described in Example 14, and NAD(P)H depletion at 340 nm was measured again. […] The KM values of variants Ec_llvC^2H10-his6 and Ec_llvC^6E6-his6 were measured and the catalytic efficiencies were calculated.

[2] = molecular target: T2, E. coli KARI Ec_IlvC variant Ec_IlvC^B8A71S-his6 (Q110V, S78D, A71S), SEQ ID NO: 29 (Escherichia coli, UniProt P05793, A71S/Q110V/S78D); assay: KARI cuvette assay, purified Ec_IlvC^B8A71S-his6; assay type: biochemical
T2 sequence (P05793 with tags, fused parts or gaps A71S/S78D/Q110V): T1 sequence (P05793 with tags, fused parts or gaps) with A71S, S78D, Q110V
Description: KARI cuvette assay: KARI activity was assayed kinetically by monitoring the decrease in NAD(P)H concentration by measuring the absorbance at 340 nm. A reaction buffer was prepared containing 250 mM potassium phosphate pH 7, 1 mM DTT and 10 mM MgCl2. Cell pellets were resuspended (0.25 g wet weight/mL buffer) in 250 mM potassium phosphate (KPi) buffer containing 1 mM DTT and 10 mM MgCl2. The resuspended cells were lysed by sonication for 1 min with a 50% duty cycle and pelleted at 11000×g and 4° C. for 15 min. A reaction mixture consisting of 910 μl reaction buffer, 50 μl acetolactate, and 20 μl lysate was prepared in a cuvette. The reaction was initiated by addition of 20 μL of 10 mM NAD(P)H. A substrate free control was conducted using reaction buffer without the addition of acetolactate.
Purification of KARI: Cell pellets used for purification were resuspended in purification buffer A (20 mM Tris, 20 mM imidazol, 100 mM NaCl, 10 mM MgCl2, pH 7.4). KARI was purified by IMAC (Immobilized metal affinity chromatography) over a 1 ml Histrap High Performance (histrap HP) column pre-charged with Nickel (GE Healthcare) using an Akta FPLC system (GE Healthcare). […]

NC(=O)C1=CN([C@@H]2O[C@H](COP(=O)(O)OP(=O)(O)OC[C@H]3O[C@@H](n4cnc5c(N)ncnc54)[C@H](O)[C@@H]3O)[C@@H](O)[C@H]2O)C=CC1 [NADH, nicotinamide adenine dinucleotide]
(kcat/KM with NADH)/(kcat/KM of Ec_IlvC^his6 with NADPH) [1]: 1% | kcat/KM ([2]; purified, acetolactate as substrate): 38330 M⁻¹ s⁻¹ | (kcat/KM with NADH)/(kcat/KM of Ec_IlvC^his6 with NADPH) ([2]; relative to Ec_IlvC^his6 with NADPH): 44%
